In brackets after ≈: the same amount, converted by molar mass. Where a name gives a salt, the structure may show the parent alone.
Assays:
[1] = test system: Staphylococcus epidermidis IAM 1296; assay: MIC, Experiment 1; assay type: cell-based; conditions: IAM1296, S. epidermidis IAM 1296, Gram +, read-out: Min. inhib. concentr. (MIC)
Description: The compounds of the present invention ([…] and Q) were each dissolved in dimethylsulfoxide to prepare a solution of 5000 μg/ml in concentration. The compounds of the present invention (I, J and K) and the known compound (Y) were each dissolved in sterilized distilled water to prepare a solution of 5000 μg/ml in concentration. […] The test was carried out by a method as appointed by Japan Society of Chemotherapy [cf. Chemotherapy, 29, 76-79 (1981), TOKYO]. As to Streptococcus pneumoniae and Streptococcus pyogenes, Brain heart infusion broth (manufactured by DIFCO) was used as the medium for the preculture thereof, and a heart infusion agar medium containing 5% defibrinated horse blood (manufactured by Nissui Seiyaku K. K., Japan) was used as the medium for the measurement of minimum inhibitory concentration (MIC). As to other microorganisms, a sensitivity test broth (manufactured by Nissui Seiyaku K. K.) was used as the medium for the preculture thereof, and a sensitivity test agar medium (manufactured by Nissui Seiyaku K. K.) was used as the medium for the measurement of MIC.

[2] = test system: Escherichia coli NIHJ JC-2; assay: MIC, Experiment 1; assay type: cell-based; conditions: NIHJJC2, E. coli NIHJ JC-2, Gram -, read-out: Min. inhib. concentr. (MIC)
Method in brief: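 MIC was determined by the Japan Society of Chemotherapy standard method. For S. pneumoniae, preculture was in brain heart infusion broth and MIC was read on heart infusion agar with 5% defibrinated horse blood. Other strains were precultured in sensitivity test broth and tested on sensitivity test agar.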

[3] = test system: Bacillus cereus IAM 1029; assay: MIC, Experiment 1; assay type: cell-based; conditions: IAM1029, B. cereus IAM 1029, Gram +, read-out: Min. inhib. concentr. (MIC)
Method in brief: (§1)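 Minimum inhibitory concentrations come from the Japan Society of Chemotherapy procedure. For streptococci, plates were heart infusion agar with 5% defibrinated horse blood after brain heart infusion broth preculture. Non-streptococcal strains were grown in sensitivity test broth and plated on sensitivity test agar.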

[4] = test system: Staphylococcus aureus IID 803; assay: MIC, Experiment 1; assay type: cell-based; conditions: IID803, S. aureus IID 803, Gram +, read-out: Min. inhib. concentr. (MIC)
Method in brief: as §1

[5] = test system: Staphylococcus aureus IID 803; assay: Effect on treatment of general infectious disease (systemic infection in mice), Experiment 3; assay type: in vivo, Staphylococcus aureus; ddY male mice; conditions: for protective effects against infection: Experiment 3, in words; for ED50: Staphylococcus aureus, IID803, 168 h, oral, 1 h after i.p. infection, mice, survival after one week, average of several tests, read-out: 50% effective dose (ED50)
Description: Staphylococcus aureus IID 803
The test microorganism was subjected to standing culture in Brain heart infusion broth (manufactured by DIFCO) at 37° C. for 16 to 18 hours. The culture was then diluted with PBS (Dulbecco's phosphate buffered saline) to adjust the concentration of bacteria to 4×10^7 -8×10^7 CFU/ml. The mixture was mixed with an equivalent amount of 10% (w/v) Mucin (BACTO MUCIN BACTERIOLOGICAL, manufactured by Difco Co.) to prepare a bacterial suspension. The thus prepared bacterial suspension (0.5 ml each) was intraperitoneally inoculated to ddY male mice (5 weeks age, weighing 24-27 g, 5 mice in each group), to infect the animals, by which systemic infectious model was prepared.
The mice were daily observed for one week, and from the survival number of mice after one week, the 50% effective dose (ED50) was calculated by Weil method. This test was repeated several times and the average of ED50 was calculated.

[6] = Acute toxicity, Experiment 5; assay type: in vivo; conditions: oral, 2000 mg/kg, one week
Description: The compound (A) or (B) of the present invention was suspended in distilled water to prepare a suspension in concentration of 200 mg/ml and the compound (C) was suspended in distilled water to prepare a suspension in concentration of 100 mg/ml. The suspension was orally administered to ddY male mice (5 weeks age, weighing 19 to 24 g, 5 mice in each group), which had been fasted for 18 hours, at a rate of 2000 mg/kg body weight of the test compound.

[7] = test system: bone marrow; assay: Micronucleus test, Experiment 8; assay type: in vivo, ICR male mice; conditions: oral 300, 1000, 3000 mg/kg, mouse bone marrow, 24 or 48 hours
Description: The compound (B) or (E) of the present invention was suspended in 1% aqueous gum arabic. The suspension was orally administered to ICR male mice (7-8 weeks age, weighing 30 to 39 g, 5 mice in each group) at a rate of 3000, 1000 or 300 mg/kg body weight of the test compound (B) or (E). After 24 hours or 48 hours, these mice were killed and the bone marrow was collected and observed the presence of micronuclei.

Compound | MIC [1] | MIC [2] | MIC [3] | MIC [4] | protective effects against infection [5] | ED50 [5] | death of mice [6] | micronucleus inducing activity [7]
CCOCC1CN(c2c(F)cc3c(=O)c(C(=O)O)c4scc5n4c3c2N(C)C5)CCO1 (stereo not shown) [Compound (Q), 9,1-(Methylimino)methano-7-fluoro-8-(2-ethoxymethylmorpholino)-5-oxo-5H-thiazolo[3,2-a]quinoline-4-carboxylic acid] | 0.1 µg/mL (≈ 0.223 µM) | 0.78 µg/mL (≈ 1.74 µM) | 0.1 µg/mL (≈ 0.223 µM) | 0.05 µg/mL (≈ 0.112 µM) | – | – | – | –
COCC1CN(c2c(F)cc3c(=O)c(C(=O)O)c4scc5n4c3c2N(C)C5)CCN1C (stereo not shown) [Compound (J), 9,1-(Methylimino)methano-7-fluoro-8-(3-methoxymethyl-4-methyl-1-piperazinyl)-5-oxo-5H-thiazolo[3,2-a]quinoline-4-carboxylic acid hydrochloride] | 0.2 µg/mL | 0.39 µg/mL | 0.1 µg/mL | 0.1 µg/mL | excellent protective effects against infection | 4.4 mg/kg | – | –
CN1Cc2csc3c(C(=O)O)c(=O)c4cc(F)c(N5CCN(C)C(CF)C5)c1c4n23 (stereo not shown) [Compound (K), 9,1-(methylimino)methano-7-fluoro-8-(3-fluoromethyl-4-methyl-1-piperazinyl)-5-oxo-5H-thiazolo[3,2-a]quinoline-4-carboxylic acid hydrochloride] | 0.1 µg/mL | 0.2 µg/mL | 0.05 µg/mL | 0.05 µg/mL | – | – | – | –
CN1Cc2csc3c(C(=O)O)c(=O)c4cc(F)c(N5CCN6CCOC[C@H]6C5)c1c4n23 [Compound (F), 9,1-(Methylimino)methano-7-fluoro-8-[(6R)-1,8-diaza-4-oxabicyclo[4.4.0]deca-8-yl]-5-oxo-5H-thiazolo[3,2-a]quinoline-4-carboxylic acid] | 0.05 µg/mL (≈ 0.112 µM) | 0.39 µg/mL (≈ 0.877 µM) | 0.025 µg/mL (≈ 0.0562 µM) | 0.013 µg/mL (≈ 0.0292 µM) | excellent protective effects against infection | 2.3 mg/kg | – | –
CN1Cc2csc3c(C(=O)O)c(=O)c4cc(F)c(N5CCC(=O)CC5)c1c4n23 [Compound (G), 9,1-(Methylimino)methano-7-fluoro-8-(4-oxopiperidino)-5-oxo-5H-thiazolo[3,2-a]quinoline-4-carboxylic acid] | 0.013 µg/mL (≈ 0.0324 µM) | 0.1 µg/mL (≈ 0.249 µM) | 0.013 µg/mL (≈ 0.0324 µM) | ≤ 0.006 µg/mL | – | – | – | –
COC[C@@H]1CN(c2c(F)cc3c(=O)c(C(=O)O)c4scc5n4c3c2N(C)C5)CCO1 [Compound (O), 9,1-(Methylimino)methano-7-fluoro-8-[(2S)-2-methoxymethylmorpholino)-5-oxo-5H-thiazolo[3,2-a]quinoline-4-carboxylic acid] | 0.05 µg/mL (≈ 0.115 µM) | 0.2 µg/mL (≈ 0.461 µM) | 0.025 µg/mL (≈ 0.0577 µM) | 0.013 µg/mL (≈ 0.03 µM) | – | – | – | –
CN1Cc2csc3c(C(=O)O)c(=O)c4cc(F)c(N5CCO[C@@H](CO)C5)c1c4n23 [Compound (N), 9,1-(Methylimino)methano-7-fluoro-8-[(2R)-2-hydroxymethylmorpholino]-5-oxo-5H-thiazolo[3,2-a]quinoline-4-caboxylic acid] | 0.05 µg/mL (≈ 0.119 µM) | 0.2 µg/mL (≈ 0.477 µM) | 0.025 µg/mL (≈ 0.0596 µM) | 0.013 µg/mL (≈ 0.031 µM) | – | – | – | –
CN1Cc2csc3c(C(=O)O)c(=O)c4cc(F)c(N5CCC(N(C)C)CC5)c1c4n23 [Compound (H), 9,1-(methylimino)methano-7-fluoro-8-(4-dimethylaminopiperidino)-5-oxo-5H-thiazolo[3,2-a]quinoline-4-carboxylic acid] | 0.2 µg/mL (≈ 0.465 µM) | 0.2 µg/mL (≈ 0.465 µM) | 0.05 µg/mL (≈ 0.116 µM) | 0.1 µg/mL (≈ 0.232 µM) | – | – | – | –
CN1Cc2csc3c(C(=O)O)c(=O)c4cc(F)c(N5CCOC(CCl)C5)c1c4n23 (stereo not shown) [Compound (D), 9,1-(Methylimino)methano-7-fluoro-8-(2-chloromethylmorpholino)-5-oxo-5H-thiazolo[3,2-a]quinoline-4-carboxylic acid] | 0.025 µg/mL (≈ 0.0571 µM) | 0.2 µg/mL (≈ 0.457 µM) | 0.025 µg/mL (≈ 0.0571 µM) | ≤ 0.006 µg/mL | – | – | – | –
CN1CCN(c2c(F)cc3c(=O)c(C(=O)O)c4scc5n4c3c2OC5)CC1 [Compound (Y), 9,1-Epoxymethano-7-fluoro-8-(4-methyl-1-piperazinyl)-5-oxo-5H-thiazolo[3,2-a]quinoline-4-carboxylic acid hydrochloride, reference compound] | 0.39 µg/mL | 0.1 µg/mL | 0.39 µg/mL | 0.2 µg/mL | – | 10.8 mg/kg | – | –
CN1Cc2csc3c(C(=O)O)c(=O)c4cc(F)c(N5CCN(C)C(CO)C5)c1c4n23 (stereo not shown) [Compound (I), 9,1-(Methylimino)methano-7-fluoro-8-(3-hydroxymethyl-4-methyl-1-piperazinyl)-5-oxo-5H-thiazolo-[3,2-a]quinoline-4-carboxylic acid hydrochloride] | 0.2 µg/mL | 0.2 µg/mL | 0.2 µg/mL | 0.2 µg/mL | – | – | – | –
COC[C@H]1CN(c2c(F)cc3c(=O)c(C(=O)O)c4scc5n4c3c2N(C)C5)CCO1 [Compound (P), 9,1-(Methylimino)methano-7-fluoro-8-[(2R)-2-methoxymethylmorpholino)-5-oxo-5H-thiazolo[3,2-a]quinoline-4-carboxylic acid] | 0.05 µg/mL (≈ 0.115 µM) | 0.2 µg/mL (≈ 0.461 µM) | 0.025 µg/mL (≈ 0.0577 µM) | 0.025 µg/mL (≈ 0.0577 µM) | – | – | – | –
CC1CN(c2c(F)cc3c(=O)c(C(=O)O)c4scc5n4c3c2N(C)C5)CCO1 (stereo not shown) [Compound (A), 9,1-(Methylimino)methano-7-fluoro-8-(2-methylmorpholino)-5-oxo-5H-thiazolo[3,2-a]quinoline-4-carboxylic acid] | 0.05 µg/mL (≈ 0.124 µM) | 0.1 µg/mL (≈ 0.248 µM) | 0.013 µg/mL (≈ 0.0322 µM) | ≤ 0.006 µg/mL | excellent protective effects against infection | 3.5 mg/kg | no death of mice was observed | –
CN1Cc2csc3c(C(=O)O)c(=O)c4cc(F)c(N5CCO[C@H](CO)C5)c1c4n23 [Compound (M), 9,1-(Methylimino)methano-7-fluoro-8-[ (2S)-2-hydroxymethylmorpholino]-5-oxo-5H-thiazolo[3,2-a]quinoline-4-carboxylic acid] | 0.05 µg/mL (≈ 0.119 µM) | 0.1 µg/mL (≈ 0.238 µM) | 0.025 µg/mL (≈ 0.0596 µM) | 0.013 µg/mL (≈ 0.031 µM) | – | – | – | –
CN1Cc2csc3c(C(=O)O)c(=O)c4cc(F)c(N5CCOC(CO)C5)c1c4n23 (stereo not shown) [Compound (B), 9,1-(Methylimino)methano-7-fluoro-8-(2-hydroxymethylmorpholino)-5-oxo-5H-thiazolo[3,2-a]quinoline-4-carboxylic acid] | 0.05 µg/mL (≈ 0.119 µM) | 0.1 µg/mL (≈ 0.238 µM) | 0.025 µg/mL (≈ 0.0596 µM) | 0.013 µg/mL (≈ 0.031 µM) | excellent protective effects against infection | 5.1 mg/kg | no death of mice was observed | no nucleus inducing activity
CN1Cc2csc3c(C(=O)O)c(=O)c4cc(F)c(N5CCC(O)CC5)c1c4n23 [Compound (L), 9,1-(Methylimino)methano-7-fluoro-8-(4-hydroxypiperidino)-5-oxo-5H-thiazolo[3,2-a]quinoline-4-carboxylic acid] | 0.013 µg/mL (≈ 0.0322 µM) | 0.1 µg/mL (≈ 0.248 µM) | 0.013 µg/mL (≈ 0.0322 µM) | ≤ 0.006 µg/mL | – | – | – | –
